Test results published in ChEMBL document CHEMBL1201862, “PubChem BioAssay data set” (2004).
Active and inactive are the calls of the source.

Experiments:
[1] = target: T1, Alkaline phosphatase, tissue-nonspecific isozyme (Homo sapiens, UniProt P05186); test: TNAP enzyme inhibition by screening hits, dose response, selectivity assay for mouse IAP inhibitor project, biochemical, human TNAP, uHTS hits (AID 488906); format: functional
T1 sequence (P05186 whole entry): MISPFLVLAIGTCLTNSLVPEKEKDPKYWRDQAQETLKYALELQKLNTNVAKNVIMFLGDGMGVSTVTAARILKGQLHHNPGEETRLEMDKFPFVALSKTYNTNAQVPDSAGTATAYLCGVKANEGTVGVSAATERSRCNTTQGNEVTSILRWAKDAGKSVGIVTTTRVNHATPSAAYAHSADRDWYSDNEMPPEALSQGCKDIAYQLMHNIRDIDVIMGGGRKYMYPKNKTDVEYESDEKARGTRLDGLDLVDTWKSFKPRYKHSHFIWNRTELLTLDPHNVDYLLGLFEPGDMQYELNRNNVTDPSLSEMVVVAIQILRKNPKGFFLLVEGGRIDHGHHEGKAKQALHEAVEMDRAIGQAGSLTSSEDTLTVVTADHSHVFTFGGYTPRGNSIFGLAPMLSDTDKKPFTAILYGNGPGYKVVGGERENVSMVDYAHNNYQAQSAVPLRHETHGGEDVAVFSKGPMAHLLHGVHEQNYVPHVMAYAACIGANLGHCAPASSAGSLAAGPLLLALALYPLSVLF

[2] = target: Intestinal-type alkaline phosphatase (Homo sapiens, UniProt P09923); test: activation of human intestinal alkaline phosphatase – biochemical, dose response (AID 488873); format: functional
Vero = test: cells; format: functional; conditions: Chlorocebus sabaeus
[3] = target: Intestinal-type alkaline phosphatase (Mus musculus, UniProt P24822); test: PubChem AID 488785; format: functional
[4] = target: T2, Kappa-type opioid receptor (Homo sapiens, UniProt P41145); format: functional
[5] = target: T2, Kappa-type opioid receptor; format: functional; remark: listed apart in the source
HeLa = test: HeLa cell cytotoxicity, dose response, cytotoxicity control for MITF activator project, CellTiter-Glo luminescence, cherry-pick samples (AID 540259); format: functional, cell-based; conditions: Homo sapiens
Beta-galactosidase = Beta-galactosidase (Escherichia coli, UniProt Q8VNN2); format: functional
[6] = HeLa cell cytotoxicity, dose response, cytotoxicity control for MgcRacGAP inhibitor project (AID 624300); format: functional
[7] = target: T3, Rac GTPase-activating protein 1 (Homo sapiens, UniProt Q9H0H5); test: MgcRacGAP GTPase-activating activity inhibitors, confirmation, biochemical, ADP Hunter fluorescence, primary and confirmatory (AID 624330); format: functional
T3 sequence (Q9H0H5 whole entry): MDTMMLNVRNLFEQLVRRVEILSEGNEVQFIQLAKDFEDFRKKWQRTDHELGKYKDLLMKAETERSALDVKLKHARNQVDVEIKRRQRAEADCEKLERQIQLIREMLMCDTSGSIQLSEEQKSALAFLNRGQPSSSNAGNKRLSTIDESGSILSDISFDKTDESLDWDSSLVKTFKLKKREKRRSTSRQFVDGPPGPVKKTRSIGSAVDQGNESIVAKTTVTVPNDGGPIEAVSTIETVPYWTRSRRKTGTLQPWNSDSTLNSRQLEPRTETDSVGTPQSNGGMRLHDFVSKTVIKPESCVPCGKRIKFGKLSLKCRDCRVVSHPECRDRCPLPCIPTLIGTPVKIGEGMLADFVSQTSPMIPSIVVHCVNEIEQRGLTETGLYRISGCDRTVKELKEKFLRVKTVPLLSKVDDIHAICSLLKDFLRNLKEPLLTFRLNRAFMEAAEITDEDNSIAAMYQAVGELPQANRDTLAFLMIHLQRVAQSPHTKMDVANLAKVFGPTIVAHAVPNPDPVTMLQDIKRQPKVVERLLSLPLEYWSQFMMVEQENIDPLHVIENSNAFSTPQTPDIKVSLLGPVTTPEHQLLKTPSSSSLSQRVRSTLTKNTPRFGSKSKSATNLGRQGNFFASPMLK

Wee1-like protein kinase = Wee1-like protein kinase (Homo sapiens, UniProt P30291); test: G2/M cell cycle arrest in HeLa, late-stage follow-up, mechanism study for Wee1 degradation inhibitor project, FACS, panel member Wee1 Degradation (AID 2088)
[8] = target: G2/mitotic-specific cyclin-B1 (Homo sapiens, UniProt P14635); test: G2/M cell cycle arrest in HeLa, late-stage follow-up, mechanism study for Wee1 degradation inhibitor project, FACS, panel member Cyclin B Degradation (AID 2088)
Hexokinase HKDC1 = target: T4, Hexokinase HKDC1 (Homo sapiens, UniProt Q2TB90); test: HKDC1 hexokinase activators, dose response, biochemical, W721R variant (AID 504730); format: functional
T4 sequence (Q2TB90 whole entry): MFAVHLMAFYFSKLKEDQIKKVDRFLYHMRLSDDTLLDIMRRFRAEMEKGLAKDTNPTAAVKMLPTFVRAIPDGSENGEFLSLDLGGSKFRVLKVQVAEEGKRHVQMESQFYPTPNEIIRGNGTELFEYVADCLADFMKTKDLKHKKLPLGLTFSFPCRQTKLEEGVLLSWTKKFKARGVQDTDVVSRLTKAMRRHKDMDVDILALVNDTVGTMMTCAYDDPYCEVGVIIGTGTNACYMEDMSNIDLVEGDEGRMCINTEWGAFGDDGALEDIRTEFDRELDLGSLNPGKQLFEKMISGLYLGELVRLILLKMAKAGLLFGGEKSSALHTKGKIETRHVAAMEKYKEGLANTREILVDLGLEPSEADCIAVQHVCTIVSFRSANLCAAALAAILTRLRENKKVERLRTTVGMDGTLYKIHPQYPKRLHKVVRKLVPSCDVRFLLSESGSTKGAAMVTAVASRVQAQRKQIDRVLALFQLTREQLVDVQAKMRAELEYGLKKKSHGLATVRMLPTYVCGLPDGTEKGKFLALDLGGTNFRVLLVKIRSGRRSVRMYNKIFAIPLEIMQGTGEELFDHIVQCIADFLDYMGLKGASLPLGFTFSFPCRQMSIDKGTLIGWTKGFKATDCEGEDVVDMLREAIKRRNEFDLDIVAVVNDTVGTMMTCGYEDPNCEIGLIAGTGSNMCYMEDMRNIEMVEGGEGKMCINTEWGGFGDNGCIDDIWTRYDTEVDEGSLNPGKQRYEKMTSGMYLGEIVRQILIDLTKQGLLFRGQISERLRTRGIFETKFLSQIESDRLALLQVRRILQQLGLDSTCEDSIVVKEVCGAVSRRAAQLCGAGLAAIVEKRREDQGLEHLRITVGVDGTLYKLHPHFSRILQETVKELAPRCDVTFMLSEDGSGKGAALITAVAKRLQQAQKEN

[9] = THP-1 cell cytotoxicity, dose response, cytotoxicity control for Vif-APOBEC3G degradation inhibitor project, THP-1 cells (AID 1117359); format: functional; conditions: Human immunodeficiency virus 1, THP-1
Nonstructural protein 1 = Nonstructural protein 1 (Influenza A virus, UniProt Q194T2); format: functional, Influenza A virus (A/California/07/2009(H1N1))
Hexokinase-1 = Hexokinase-1 (Homo sapiens, UniProt P19367); test: hexokinase 1 activators, dose response, selectivity assay for HKDC1 activator project, biochemical (AID 504762); format: functional
[10] = blockers of SFLLRN-triggered platelet ATP secretion – cell-based, human platelets, luminescence, dry powder, dose response (AID 493100); format: functional
[11] = target: DNA damage-inducible transcript 3 protein (Mus musculus, UniProt P35639); format: functional, Cricetulus griseus
DNA damage-inducible transcript 3 protein, sequence (P35639 whole entry): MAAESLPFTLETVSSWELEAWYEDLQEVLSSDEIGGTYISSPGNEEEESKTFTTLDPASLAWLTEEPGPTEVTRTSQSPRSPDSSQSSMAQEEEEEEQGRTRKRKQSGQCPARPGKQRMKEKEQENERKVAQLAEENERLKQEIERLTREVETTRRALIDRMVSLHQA

T2 sequence (P41145 whole entry): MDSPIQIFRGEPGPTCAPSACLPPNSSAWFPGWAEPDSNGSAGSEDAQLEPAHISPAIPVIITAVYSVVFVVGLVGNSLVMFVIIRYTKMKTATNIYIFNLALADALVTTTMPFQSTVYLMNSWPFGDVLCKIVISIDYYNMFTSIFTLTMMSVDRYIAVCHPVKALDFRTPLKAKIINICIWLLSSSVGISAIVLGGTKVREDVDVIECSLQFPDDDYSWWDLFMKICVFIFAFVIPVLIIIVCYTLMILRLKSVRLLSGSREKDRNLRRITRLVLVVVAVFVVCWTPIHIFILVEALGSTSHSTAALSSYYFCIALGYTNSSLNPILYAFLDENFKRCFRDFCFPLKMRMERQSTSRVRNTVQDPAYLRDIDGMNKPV
Nonstructural protein 1, sequence (Q194T2 whole entry): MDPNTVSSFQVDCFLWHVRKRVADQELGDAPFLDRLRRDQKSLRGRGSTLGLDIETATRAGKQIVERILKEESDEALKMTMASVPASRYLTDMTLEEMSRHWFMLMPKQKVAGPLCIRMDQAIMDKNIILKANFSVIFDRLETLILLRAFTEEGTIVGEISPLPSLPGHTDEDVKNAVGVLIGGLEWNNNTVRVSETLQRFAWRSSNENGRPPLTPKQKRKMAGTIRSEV
Hexokinase-1, sequence (P19367 whole entry): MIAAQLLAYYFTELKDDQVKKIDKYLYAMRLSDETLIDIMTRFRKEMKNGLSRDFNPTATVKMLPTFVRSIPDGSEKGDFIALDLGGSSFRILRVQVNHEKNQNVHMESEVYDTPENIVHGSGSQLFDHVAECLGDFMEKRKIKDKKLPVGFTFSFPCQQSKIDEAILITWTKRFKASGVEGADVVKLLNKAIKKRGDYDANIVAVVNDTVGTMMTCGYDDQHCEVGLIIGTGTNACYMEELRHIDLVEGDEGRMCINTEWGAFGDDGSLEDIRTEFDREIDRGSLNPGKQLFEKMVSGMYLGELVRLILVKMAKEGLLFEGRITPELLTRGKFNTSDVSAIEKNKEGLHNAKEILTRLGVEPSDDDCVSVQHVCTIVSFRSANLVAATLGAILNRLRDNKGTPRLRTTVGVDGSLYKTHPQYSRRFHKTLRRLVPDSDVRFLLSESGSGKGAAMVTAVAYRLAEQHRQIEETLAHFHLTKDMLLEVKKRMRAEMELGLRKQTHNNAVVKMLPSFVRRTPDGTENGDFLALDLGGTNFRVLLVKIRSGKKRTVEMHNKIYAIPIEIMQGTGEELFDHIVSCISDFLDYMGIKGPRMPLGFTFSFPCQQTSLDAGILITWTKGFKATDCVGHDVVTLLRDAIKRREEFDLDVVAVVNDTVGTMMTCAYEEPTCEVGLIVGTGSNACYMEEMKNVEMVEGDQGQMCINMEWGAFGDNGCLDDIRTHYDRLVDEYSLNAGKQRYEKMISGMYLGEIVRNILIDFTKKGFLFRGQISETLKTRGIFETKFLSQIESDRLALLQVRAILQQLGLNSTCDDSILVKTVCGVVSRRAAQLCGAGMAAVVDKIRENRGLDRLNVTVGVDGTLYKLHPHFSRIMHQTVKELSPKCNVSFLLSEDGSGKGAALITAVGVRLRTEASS
Beta-galactosidase, sequence (Q8VNN2 whole entry): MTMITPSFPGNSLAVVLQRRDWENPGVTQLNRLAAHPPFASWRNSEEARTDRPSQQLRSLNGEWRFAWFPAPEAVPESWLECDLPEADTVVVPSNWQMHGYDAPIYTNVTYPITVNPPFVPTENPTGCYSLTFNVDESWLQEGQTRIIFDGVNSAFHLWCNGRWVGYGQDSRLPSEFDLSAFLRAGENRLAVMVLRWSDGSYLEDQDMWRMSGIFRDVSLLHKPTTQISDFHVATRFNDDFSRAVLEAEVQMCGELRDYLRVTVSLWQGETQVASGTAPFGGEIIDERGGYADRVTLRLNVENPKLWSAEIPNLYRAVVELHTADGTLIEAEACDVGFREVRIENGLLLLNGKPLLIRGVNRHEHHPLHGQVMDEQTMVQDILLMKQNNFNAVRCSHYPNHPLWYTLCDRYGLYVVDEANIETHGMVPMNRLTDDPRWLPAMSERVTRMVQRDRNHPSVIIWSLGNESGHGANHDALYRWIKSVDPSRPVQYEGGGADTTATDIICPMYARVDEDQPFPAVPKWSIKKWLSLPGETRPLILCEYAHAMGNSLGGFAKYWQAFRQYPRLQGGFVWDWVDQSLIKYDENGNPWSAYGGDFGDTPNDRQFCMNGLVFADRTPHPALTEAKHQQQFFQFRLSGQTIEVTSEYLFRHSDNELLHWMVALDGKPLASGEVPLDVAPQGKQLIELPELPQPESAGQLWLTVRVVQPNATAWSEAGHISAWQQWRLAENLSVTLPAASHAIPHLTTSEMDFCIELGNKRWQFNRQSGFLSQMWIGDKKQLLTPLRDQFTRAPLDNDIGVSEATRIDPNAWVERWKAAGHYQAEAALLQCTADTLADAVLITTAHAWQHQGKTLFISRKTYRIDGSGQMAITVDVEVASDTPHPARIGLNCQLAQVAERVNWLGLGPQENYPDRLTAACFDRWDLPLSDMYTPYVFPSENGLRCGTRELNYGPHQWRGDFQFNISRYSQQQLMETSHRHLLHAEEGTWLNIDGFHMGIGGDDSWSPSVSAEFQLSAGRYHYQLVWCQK
Wee1-like protein kinase, sequence (P30291 whole entry): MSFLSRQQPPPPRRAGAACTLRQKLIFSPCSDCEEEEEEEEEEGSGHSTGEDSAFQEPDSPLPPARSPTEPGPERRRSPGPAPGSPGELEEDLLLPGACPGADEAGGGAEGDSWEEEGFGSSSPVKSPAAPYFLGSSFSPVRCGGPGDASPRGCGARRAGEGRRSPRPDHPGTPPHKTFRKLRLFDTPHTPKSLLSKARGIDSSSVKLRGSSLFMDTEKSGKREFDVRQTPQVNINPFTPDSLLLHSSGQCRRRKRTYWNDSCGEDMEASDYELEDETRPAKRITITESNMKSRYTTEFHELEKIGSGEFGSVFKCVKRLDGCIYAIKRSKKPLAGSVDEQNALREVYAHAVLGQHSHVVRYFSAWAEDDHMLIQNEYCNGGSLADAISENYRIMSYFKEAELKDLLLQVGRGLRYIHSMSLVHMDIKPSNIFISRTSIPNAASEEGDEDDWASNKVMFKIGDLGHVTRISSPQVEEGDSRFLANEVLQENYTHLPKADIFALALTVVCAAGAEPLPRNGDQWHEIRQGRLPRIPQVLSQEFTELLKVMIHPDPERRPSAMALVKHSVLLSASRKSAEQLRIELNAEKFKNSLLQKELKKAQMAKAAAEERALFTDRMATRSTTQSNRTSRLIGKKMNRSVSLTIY
Intestinal-type alkaline phosphatase (Mus musculus, UniProt P24822), sequence (P24822 whole entry): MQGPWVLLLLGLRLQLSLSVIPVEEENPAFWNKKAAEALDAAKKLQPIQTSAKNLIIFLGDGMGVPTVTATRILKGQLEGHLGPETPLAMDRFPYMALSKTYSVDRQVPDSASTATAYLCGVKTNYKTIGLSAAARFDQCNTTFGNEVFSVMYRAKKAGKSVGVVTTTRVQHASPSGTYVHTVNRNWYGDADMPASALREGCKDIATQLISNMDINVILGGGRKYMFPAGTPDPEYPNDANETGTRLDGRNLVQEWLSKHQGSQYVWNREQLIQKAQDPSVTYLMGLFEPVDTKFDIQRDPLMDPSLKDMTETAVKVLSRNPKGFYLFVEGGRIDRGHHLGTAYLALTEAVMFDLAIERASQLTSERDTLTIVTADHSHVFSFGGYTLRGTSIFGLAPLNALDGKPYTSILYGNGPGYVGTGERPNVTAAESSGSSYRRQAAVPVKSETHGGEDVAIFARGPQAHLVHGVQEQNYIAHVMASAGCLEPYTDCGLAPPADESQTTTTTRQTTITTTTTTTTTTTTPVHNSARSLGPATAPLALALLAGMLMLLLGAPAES
Intestinal-type alkaline phosphatase (Homo sapiens, UniProt P09923), sequence (P09923 whole entry): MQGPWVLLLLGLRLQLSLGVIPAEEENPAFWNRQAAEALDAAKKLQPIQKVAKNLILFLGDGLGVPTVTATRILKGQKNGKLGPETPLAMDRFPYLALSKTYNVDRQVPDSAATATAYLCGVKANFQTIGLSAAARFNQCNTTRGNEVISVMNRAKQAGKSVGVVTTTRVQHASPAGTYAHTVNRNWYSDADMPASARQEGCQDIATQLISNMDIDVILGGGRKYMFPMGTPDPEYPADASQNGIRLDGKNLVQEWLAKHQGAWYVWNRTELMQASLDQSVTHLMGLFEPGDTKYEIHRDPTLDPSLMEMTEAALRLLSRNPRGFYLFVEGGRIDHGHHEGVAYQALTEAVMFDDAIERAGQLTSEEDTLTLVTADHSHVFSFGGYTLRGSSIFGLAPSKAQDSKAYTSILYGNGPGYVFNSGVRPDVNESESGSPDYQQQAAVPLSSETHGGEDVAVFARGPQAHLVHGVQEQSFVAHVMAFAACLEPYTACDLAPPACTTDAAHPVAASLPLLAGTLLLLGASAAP
G2/mitotic-specific cyclin-B1, sequence (P14635 whole entry): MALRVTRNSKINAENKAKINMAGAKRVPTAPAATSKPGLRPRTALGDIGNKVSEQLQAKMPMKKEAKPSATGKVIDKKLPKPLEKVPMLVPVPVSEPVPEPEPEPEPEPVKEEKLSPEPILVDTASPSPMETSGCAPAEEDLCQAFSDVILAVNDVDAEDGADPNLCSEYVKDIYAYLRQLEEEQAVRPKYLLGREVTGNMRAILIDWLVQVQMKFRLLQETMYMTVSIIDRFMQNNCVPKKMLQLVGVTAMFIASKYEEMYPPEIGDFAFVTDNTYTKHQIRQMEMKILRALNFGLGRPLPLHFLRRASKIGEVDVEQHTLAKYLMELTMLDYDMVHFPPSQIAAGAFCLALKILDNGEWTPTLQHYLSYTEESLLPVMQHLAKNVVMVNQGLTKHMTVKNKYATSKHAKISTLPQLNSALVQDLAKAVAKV

## Cc1c(CN2CCC(C(=O)Nc3cccc(-c4cccc(Cl)c4)c3)CC2)cnn1C
[1]
  IC50: > 100 µM (inactive)
[2]
  EC50: 37.2 µM (active)
Vero
  CC50: 16.1 µM (active)
[3]
  IC50: 4.27 µM (active)

## COc1cc(/C=C2\SC(=S)N(Nc3ccccc3)C2=O)ccc1O
[4]
  IC50: 8.41 µM (active)
[5]
  IC50: > 32 µM
HeLa
  AC50: 41 µM (active)
Beta-galactosidase
  EC50: 9.67 µM (active)
[6]
  CC50: 100 µM (active)
[7]
  IC50: 55.7 µM (active)

## c1cc2[nH]c3c(c2c2nonc12)CCCC3
Wee1-like protein kinase
  EC50: > 49.7 µM (inactive)
[8]
  EC50: > 49.7 µM (inactive)

## CC(=NNC(=S)SCc1ccccc1)c1ccccn1
Hexokinase HKDC1
  EC50: 1.61 µM (active)
[9]
  CC50: < 0.08 µM (active)
Nonstructural protein 1
  IC50: 12.2 µM (active)
Hexokinase-1
  EC50: > 80 µM (inactive)

## CCCC(=O)Nc1cccc(NC(=O)c2ccccc2Cl)c1
[10]
  AC50: 6.09 µM (active)

## COC(=O)Oc1ccc(/C=N/NC(=O)CSCc2ccccc2Br)cc1OC
[11]
  Absolute IC50 (CHOP): 10 µM
